{
  "source": "patent US20170049100A1",
  "about": "(priority 2014, published 2017)",
  "test_system": "resistant strain of Pythium sp.",
  "experiment": "In vitro sensitivity of a resistant strain of Pythium sp. (mycelium growth, optical density at 590 nm)",
  "type": "cell-based",
  "conditions": "168 h, 500 spores/mL, 7 days at 20° C., read-out: EC50 (effective concentration of the active ingredient which reduces the growth of the phytopathogen by 50%)",
  "data": [
    {"smiles": "CCCCCCCCO", "note": "[octanol, octan-1-ol]", "values": [
      {"measurement": "EC50", "result": 1.3, "unit": "ng/mL"}
    ]}
  ]
}
